Results on 47 compounds are retold here after patent US8058243B2, “Method for treating a brain cancer with ifenprodil” (HSC Research and Development Limited Partnership, priority 2006, dated 2011).

The assay relates to murine neural precursor cells (neurosphere cultures). Nature of the assay: HTS of LOPAC library against secondary neurosphere cultures, MTT proliferation assay at 3 μM, day 7 (z score, P value). The class given is cell-based, mouse. Background: Formazan colour is commonly taken as a measure of viable cells.
The mark [1] stands for this setting: LOPAC library screen, 3 μM, MTT, neurosphere cultures.
[2] abbreviates: LOPAC screen, neurosphere MTT proliferation, 3 μM, day 7.
The mark [3] stands for this setting: LOPAC library screen, 3 μM, MTT, secondary neurosphere cultures, day 7.
Setting [4] is: yes/no: significantly inhibited neurosphere proliferation (P<0.01) in primary screen.
[5] abbreviates: primary LOPAC screen, 3 μM, MTT, neurosphere proliferation.
The mark [6] stands for this setting: yes/no: significantly inhibited neurosphere proliferation in the primary screen.
Where [7] appears, read: LOPAC primary screen, neurosphere MTT proliferation, 3 μM, day 7.
The mark [8] stands for this setting: yes/no: significantly inhibited neurosphere proliferation (P<0.01) in the primary screen.
Setting [9] is: yes = significantly inhibited neurosphere proliferation (P<0.01) in the primary screen.
Setting [10] is: LOPAC library screen at 3 μM, secondary neurosphere cultures, MTT.
The mark [11] stands for this setting: yes/no: significantly inhibited neurosphere proliferation in primary screen.
Where [12] appears, read: LOPAC library screen at 3 μM, MTT, secondary neurosphere cultures, screened in singlets.

Structures can show the parent of a compound that is named as a salt. Where two headings read alike, the source gives them in different places.

Consider `NC(CO)C(=O)NNCc1ccc(O)c(O)c1O` (stereo not drawn) [Benserazide hydrochloride], for which the Activity result is given as “no”. Further, under setting [1], the “Z Score” value came out at 0.007467. The same compound gave a Z score under setting [2] of 0.007.

Take `Cc1c2ccncc2c(C)c2c1[nH]c1ccccc12` [Ellipticine]: the “Z Score” value under setting [3] is recorded as −8.321.

`C[C@@H](N)[C@H]1CC[C@H](C(=O)Nc2ccncc2)CC1` [Y-27632 dihydrochloride]: where the note is “168 h, 3 µM”, the “Z Score” value is −0.1255 and the Z score is on record as −0.125. Also, under setting [4], the Activity entry is given as “no”.

As for `Cc1cn([C@H]2C=C[C@@H](CO)O2)c(=O)[nH]c1=O` [2′,3′-didehydro-3′-deoxythymidine], under setting [3], the “Z Score” value is recorded as −1.878. Moreover, the Z score under setting [2] is recorded as −1.878. Besides, the Activity result under setting [4] is listed as “no”.

`Cl.NCCc1ccc(O)cc1` [4-Hydroxyphenethylamine hydrochloride]: the “Z Score” value is recorded as 1.03. Also, under setting [5], the Z score is on record as 1.030. The Activity entry under setting [6] was “no”.

In the case of `COc1ccc(CCN(C)CCc2ccc(OC)c(OC)c2)cc1OC.Cl` [YS-035 hydrochloride], the “Z Score” value worked out at 0.04311. In addition, the Z score under setting [7] is 0.043. The Activity result under setting [8] was “no”.

Take `Cl.NCC(O)c1cc(O)c(O)cc1F` (stereo not drawn) [6-Fluoronorepinephrine hydrochloride]: the “Z Score” value is −1.168. Moreover, the Z score under setting [2] is −1.168. Moreover, under setting [4], the Activity result was “no”.

As to `C=C(C)[C@H]1CN[C@H](C(=O)O)[C@H]1CC(=O)O` [Kainic acid], the “Z Score” value was −0.3169. Moreover, the Z score under setting [7] is on record as −0.317. Also, the Activity entry under setting [4] is on record as “no”.

For the compound `CN(C)C(=O)Oc1cccc([N+](C)(C)C)c1` [Neostigmine bromide], the “Z Score” value came out at 1.228. The compound further came in with a Z score under setting [7] of 1.228. The Activity result under setting [9] was “no”.

With `CN(C)CCCN1c2ccccc2Sc2ccc(C(F)(F)F)cc21` [Triflupromazine hydrochloride], the “Z Score” value under setting [3] is given as −1.82. Moreover, under setting [7], the Z score is listed as −1.820. In addition, the Activity result under setting [8] is reported as “no”.

“R(−)-2,10,11-Trihydroxy-N-propylnoraporphine hydrobromide”: the “Z Score” value is listed as −2.744.

On to `CC(C[N+](C)(C)C)OC(N)=O` (stereo not drawn) [Bethanechol chloride], for which the “Z Score” value under setting [10] was −0.6493. The compound also registered a Z score under setting [2] of −0.649. The Activity entry under setting [4] is “no”.

Turning to `CC1Cc2cc3c(cc2C(c2ccc(N)cc2)=NN1)OCO3` (stereo not drawn) [GYKI 52895], the Activity result was “no” and the “Z Score” value is −1.258. Under setting [7], the Z score is reported as −1.258.

As for `COc1ccccc1N1CCN(CCCNc2cc(=O)n(C)c(=O)n2C)CC1` [Urapidil hydrochloride], under “168 h, 3 µM”, the “Z Score” value is recorded as 0.1572 and the Z score is 0.157. Besides, under setting [6], the Activity entry was “no”.

Consider `CN(C)CCC(c1ccccc1)c1ccccn1` (stereo not drawn) [Pheniramine maleate], for which the “Z Score” value under setting [10] is −0.2062. The Z score under setting [7] is −0.206. The Activity entry under setting [8] is “no”.

Consider `O=c1[nH]c2ccccc2n1CCCN1CCC(n2c(=O)[nH]c3cc(Cl)ccc32)CC1` [Domperidone], for which the Activity result is reported as “no”. Besides, the “Z Score” value under setting [3] is reported as −1.525. For the same compound, the Z score under setting [7] is on record as −1.525.

With `Cc1ccccc1/C=C/C1=NCCN1` [Metrazoline oxalate], for the setting “168 h, 3 µM”, the “Z Score” value is 0.1073 and the Z score was 0.107. Under setting [9], the Activity result was “no”.

With `COc1ccc(CCCOC(Cn2ccnc2)c2ccc(OC)cc2)cc1` (stereo not drawn) [SKF 96365], the “Z Score” value is listed as −4.497. Also, the Z score under setting [7] is recorded as −4.497. For the same compound, the Activity entry under setting [9] is recorded as “yes”.

For `Br.CN1CCc2cc(O)c(O)cc2C(c2ccccc2)C1` (stereo not drawn) [SKF 75670 hydrobromide], the “Z Score” value was −0.1421. This compound displayed a Z score under setting [7] of −0.142. Also, the Activity result under setting [11] is “no”.

With Albuterol hemisulfate, under setting [10], the “Z Score” value was −0.949. Further, the Z score under setting [7] is on record as −0.949. Moreover, the Activity result under setting [11] is given as “no”.

`Cl.NCCC[C@](N)(C(=O)O)C(F)F` (racemic): the “Z Score” value under setting [10] is −0.4244. Under setting [2], this compound returned a Z score of −0.424. Also, under setting [4], the Activity result was “no”.

As for `O=c1n(CCCN2CCN(c3cccc(Cl)c3)CC2)nc2ccccn12` [Trazodone hydrochloride], for the setting “168 h, 3 µM”, the “Z Score” value was −2.644 and the Z score is −2.644. For the same compound, the Activity result under setting [8] was “yes”.

With `N=C(N)c1ccc(OCCCCCOc2ccc(C(=N)N)cc2)cc1` [Pentamidine (32), Pentamidine, reference compound], the Activity entry is reported as “yes”. The “Z Score” value under setting [3] is −11.27. This compound also yielded a Z score under setting [7] of −11.274.

`CC(NCCc1ccc(O)cc1)C(O)c1ccc(O)cc1` (stereo not drawn) [Ritodrine hydrochloride]: the “Z Score” value under setting [3] was −2.332. The compound further came in with a Z score under setting [7] of −2.332. The Activity entry under setting [8] is on record as “yes”.

`O=C(O)c1cc2cc(Cc3cccnc3)ccc2o1` [Furegrelate sodium]: under setting [1], the “Z Score” value was determined as 0.3638. The compound also returned a Z score under setting [7] of 0.364. Further, under setting [4], the Activity result is listed as “no”.

Turning to `COc1cc([C@@H]2c3cc4c(cc3[C@H](O)[C@H]3COC(=O)[C@H]23)OCO4)cc(OC)c1OC` [Podophyllotoxin], the “Z Score” value is listed as −11.15. Moreover, the Z score under setting [7] is given as −11.147. For the same compound, under setting [8], the Activity entry was “yes”.

As to `Nc1nc(OCc2ccccc2)c2nc[nH]c2n1` [O6-benzylguanine], the “Z Score” value under setting [10] was −1.177. The same compound gave a Z score under setting [5] of −1.177. Further, the Activity entry under setting [6] was “no”.

Consider `CC(=O)O[C@H]1C[C@@]2(C)[C@@H](C[C@@H](O)[C@H]3[C@@]4(C)CC[C@@H](O)[C@@H](C)[C@@H]4CC[C@@]32C)/C1=C(\CCC=C(C)C)C(=O)O` [Fusidic acid sodium], for which the “Z Score” value under setting [12] was determined as 2.045. The Z score under setting [7] is 2.045. For the same compound, under setting [4], the Activity result is reported as “no”.

Regarding `O=C(O)CCC(=O)N1CCC[C@H]1C(=O)O` [N-Succinyl-L-proline], under setting [1], the “Z Score” value was found to be 0.7246. This compound also displayed a Z score under setting [7] of 0.725. Besides, the Activity entry under setting [11] was “no”.

On to `COC(=O)C1=C(C)NC(C)=C(C(=O)OCCN(C)Cc2ccccc2)C1c1cccc([N+](=O)[O-])c1` (stereo not drawn) [Nicardipine hydrochloride], for which, under setting [12], the “Z Score” value is listed as 1.869. Further, the Z score under setting [7] came to 1.869. Besides, the Activity result under setting [9] is “no”.

For the compound `N#C/C(=C\c1ccc(O)c(O)c1)C(=O)NCc1ccccc1` [Tyrphostin AG 490], the “Z Score” value under setting [12] amounted to 1.802. Further, the Z score under setting [5] was found to be 1.802. For the same compound, under setting [6], the Activity result is recorded as “no”.

Turning to `O=C[C@H](Cl)[C@@H](O)[C@H](O)[C@H](O)CO` [2-Chloro-2-deoxy-D-glucose], the “Z Score” value under setting [3] is on record as −2.364. Besides, under setting [7], the Z score is on record as −2.364. Moreover, the Activity entry under setting [9] is listed as “yes”.

As to `NC[C@H](O)c1ccc(O)c(O)c1.O=C(O)C(O)C(O)C(=O)O` [(B1)-Norepinephrine (+)bitartrate], the “Z Score” value worked out at 0.09903.

Regarding `C=CCN1CC[C@]23c4c5ccc(O)c4O[C@H]2C(=O)CC[C@@]3(O)[C@H]1C5` [Naloxone hydrochloride], the “Z Score” value under setting [3] is given as −10.14. The compound further showed a Z score under setting [7] of −10.137. For the same compound, the Activity result under setting [8] was “yes”.

Regarding `CCn1cc(C(=O)O)c(=O)c2ccc(Cc3ccccc3)nc21` [Amfonelic acid], the “Z Score” value under setting [1] is reported as 0.488. Further, under setting [2], the Z score is listed as 0.488. The Activity entry under setting [4] is on record as “no”.

Regarding `CC(CN(C)C)CN1c2ccccc2CCc2ccccc21` (stereo not drawn) [Trimipramine maleate], the “Z Score” value under setting [1] was 0.5677. The compound further returned a Z score under setting [5] of 0.568. In addition, the Activity result under setting [6] was “no”.

For the compound R-(−)-Fluoxetine hydrochloride, the Activity entry is “no”. In addition, the “Z Score” value under setting [10] was −0.1281.

With `CC(C)NCC(O)c1ccc(O)c(O)c1.Cl` (racemic) [(±)-Isopoterenol hydrochloride], under setting [7], the Z score is −0.572. Further, the Activity result under setting [4] is “no”.

On to `NCC(CC(=O)O)c1ccc(Cl)cc1` (stereo not drawn) [(B1)-Baclofen], for which the “Z Score” value is reported as −1.069.

With `Br.C=CCN1CCc2cc(O)c(O)cc2C(c2ccccc2)C1` (stereo not drawn) [(B1)-SKF 38393, N-allyl-, hydrobromide], the “Z Score” value was −1.59.

As to `Nc1ccc(N2C(=O)c3ccccc3C2=O)c(Cl)c1` [N-(4-Amino-2-chlorophenyl)phthalimide], the “Z Score” value under setting [10] is −0.6021. In addition, the Z score under setting [5] is −0.602. Further, the Activity entry under setting [6] was “no”.

For the compound “Phenylbenzene-omega-phosphono-alpha-amino acid”, the “Z Score” value is given as −0.01423. Under setting [7], this compound came in with a Z score of −0.014. Also, under setting [11], the Activity result was “no”.

For `NCCCCCC(=O)O` [6-Aminohexanoic acid], the Activity entry is reported as “no”, the “Z Score” value is reported as −2.179 and the Z score was −2.179.

With (±)-Atenolol, the Z score under setting [5] is reported as −0.658. In addition, the Activity entry under setting [6] is “no”.

In the case of `CC(N)(C(=O)O)c1ccc(C(=O)O)cc1` (stereo not drawn) [(B1)-alpha-Methyl-4-carboxyphenylglycine], the “Z Score” value was determined as 0.727.

As for `CCc1cccc2c3c([nH]c12)C(CC)(CC(=O)O)OCC3` (stereo not drawn) [Etodolac], under setting [10], the “Z Score” value is recorded as −0.5582. The Z score under setting [2] is −0.558. For the same compound, the Activity result under setting [4] is recorded as “no”.

Consider Metaproterenol hemisulfate, for which the “Z Score” value under setting [10] is reported as −1.022. Under setting [7], the Z score is −1.022. Moreover, the Activity result under setting [9] was “no”.
